Reference: the NIST ThermoML archive (doi:10.1016/j.jct.2005.04.017)
Numbers after ± are expanded uncertainties.

Assay: mn = molality of the nth substance listed, in mol/kg
Details: Liquid, Capillary tube (Ostwald / Ubbelohde) method

O=[N+]([O-])[O-].O=[N+]([O-])[O-].[Ni+2] [nickel(II) nitrate] + O
viscosity (323.74 K, 20000 kPa, m1 = 0.218): 0.5944 ± 0.01 mPa·s
viscosity (323.74 K, 30000 kPa, m1 = 0.218): 0.5968 ± 0.01 mPa·s
viscosity (324.76 K, 100 kPa, m1 = 1.824): 1.026 ± 0.019 mPa·s
viscosity (324.76 K, 10000 kPa, m1 = 1.824): 1.031 ± 0.019 mPa·s
viscosity (324.76 K, 20000 kPa, m1 = 1.824): 1.036 ± 0.019 mPa·s
viscosity (324.76 K, 30000 kPa, m1 = 1.824): 1.04 ± 0.019 mPa·s
viscosity (326.78 K, 100 kPa, m1 = 1.368): 0.8295 ± 0.015 mPa·s
viscosity (326.78 K, 10000 kPa, m1 = 1.368): 0.8341 ± 0.015 mPa·s
viscosity (326.78 K, 20000 kPa, m1 = 1.368): 0.8376 ± 0.015 mPa·s
viscosity (326.78 K, 30000 kPa, m1 = 1.368): 0.8422 ± 0.015 mPa·s
viscosity (330.84 K, 100 kPa, m1 = 2.246): 1.072 ± 0.02 mPa·s
viscosity (330.84 K, 10000 kPa, m1 = 2.246): 1.078 ± 0.02 mPa·s
viscosity (330.84 K, 20000 kPa, m1 = 2.246): 1.082 ± 0.02 mPa·s
viscosity (330.84 K, 30000 kPa, m1 = 2.246): 1.089 ± 0.02 mPa·s
viscosity (338.46 K, 100 kPa, m1 = 1.368): 0.703 ± 0.013 mPa·s
viscosity (338.46 K, 10000 kPa, m1 = 1.368): 0.7074 ± 0.013 mPa·s
viscosity (338.46 K, 20000 kPa, m1 = 1.368): 0.7123 ± 0.013 mPa·s
viscosity (338.46 K, 30000 kPa, m1 = 1.368): 0.7174 ± 0.013 mPa·s
viscosity (347.43 K, 100 kPa, m1 = 0.288): 0.4289 ± 0.0074 mPa·s
viscosity (347.43 K, 10000 kPa, m1 = 0.288): 0.4346 ± 0.0076 mPa·s
viscosity (347.43 K, 20000 kPa, m1 = 0.288): 0.4376 ± 0.0076 mPa·s
viscosity (347.43 K, 30000 kPa, m1 = 0.288): 0.4422 ± 0.0078 mPa·s
viscosity (347.65 K, 100 kPa, m1 = 0.05): 0.3939 ± 0.0068 mPa·s
viscosity (347.65 K, 10000 kPa, m1 = 0.05): 0.3949 ± 0.0069 mPa·s
viscosity (347.65 K, 20000 kPa, m1 = 0.05): 0.3964 ± 0.0069 mPa·s
viscosity (347.65 K, 30000 kPa, m1 = 0.05): 0.4013 ± 0.007 mPa·s
viscosity (347.82 K, 100 kPa, m1 = 2.246): 0.843 ± 0.016 mPa·s
viscosity (347.82 K, 10000 kPa, m1 = 2.246): 0.8486 ± 0.016 mPa·s
viscosity (347.82 K, 20000 kPa, m1 = 2.246): 0.8534 ± 0.016 mPa·s
viscosity (347.82 K, 30000 kPa, m1 = 2.246): 0.8621 ± 0.016 mPa·s
viscosity (347.94 K, 100 kPa, m1 = 0.218): 0.4152 ± 0.0072 mPa·s
viscosity (347.94 K, 10000 kPa, m1 = 0.218): 0.4194 ± 0.0073 mPa·s
viscosity (347.94 K, 20000 kPa, m1 = 0.218): 0.4228 ± 0.0073 mPa·s
viscosity (347.94 K, 30000 kPa, m1 = 0.218): 0.426 ± 0.0074 mPa·s
viscosity (348.89 K, 100 kPa, m1 = 0.153): 0.401 ± 0.007 mPa·s
viscosity (348.89 K, 10000 kPa, m1 = 0.153): 0.4057 ± 0.007 mPa·s
viscosity (348.89 K, 20000 kPa, m1 = 0.153): 0.4091 ± 0.0071 mPa·s
viscosity (348.89 K, 30000 kPa, m1 = 0.153): 0.4122 ± 0.0072 mPa·s
viscosity (349.46 K, 100 kPa, m1 = 0.951): 0.5292 ± 0.0093 mPa·s
viscosity (349.46 K, 10000 kPa, m1 = 0.951): 0.5331 ± 0.0093 mPa·s
viscosity (349.46 K, 20000 kPa, m1 = 0.951): 0.5374 ± 0.0094 mPa·s
viscosity (349.46 K, 30000 kPa, m1 = 0.951): 0.5411 ± 0.0095 mPa·s
viscosity (349.76 K, 100 kPa, m1 = 0.608): 0.4664 ± 0.0081 mPa·s
viscosity (349.76 K, 100 kPa, m1 = 1.368): 0.6103 ± 0.011 mPa·s
viscosity (349.76 K, 100 kPa, m1 = 1.824): 0.722 ± 0.013 mPa·s
viscosity (349.76 K, 10000 kPa, m1 = 0.608): 0.4708 ± 0.0082 mPa·s
viscosity (349.76 K, 10000 kPa, m1 = 1.368): 0.6146 ± 0.011 mPa·s
viscosity (349.76 K, 10000 kPa, m1 = 1.824): 0.728 ± 0.013 mPa·s
viscosity (349.76 K, 20000 kPa, m1 = 0.608): 0.4742 ± 0.0082 mPa·s
viscosity (349.76 K, 20000 kPa, m1 = 1.368): 0.6194 ± 0.011 mPa·s
viscosity (349.76 K, 20000 kPa, m1 = 1.824): 0.7335 ± 0.013 mPa·s
viscosity (349.76 K, 30000 kPa, m1 = 0.608): 0.4779 ± 0.0083 mPa·s
viscosity (349.76 K, 30000 kPa, m1 = 1.368): 0.6253 ± 0.011 mPa·s
viscosity (349.76 K, 30000 kPa, m1 = 1.824): 0.738 ± 0.013 mPa·s
viscosity (364.21 K, 100 kPa, m1 = 2.246): 0.6918 ± 0.012 mPa·s
viscosity (364.21 K, 10000 kPa, m1 = 2.246): 0.698 ± 0.013 mPa·s
viscosity (364.21 K, 20000 kPa, m1 = 2.246): 0.705 ± 0.013 mPa·s
viscosity (364.21 K, 30000 kPa, m1 = 2.246): 0.7104 ± 0.013 mPa·s
viscosity (372.46 K, 100 kPa, m1 = 0.153): 0.3059 ± 0.0054 mPa·s
viscosity (372.46 K, 10000 kPa, m1 = 0.153): 0.3101 ± 0.0055 mPa·s
viscosity (372.46 K, 20000 kPa, m1 = 0.153): 0.314 ± 0.0055 mPa·s
viscosity (372.46 K, 30000 kPa, m1 = 0.153): 0.3166 ± 0.0056 mPa·s
viscosity (372.48 K, 100 kPa, m1 = 0.218): 0.3134 ± 0.0055 mPa·s
viscosity (372.48 K, 10000 kPa, m1 = 0.218): 0.3179 ± 0.0056 mPa·s
viscosity (372.48 K, 20000 kPa, m1 = 0.218): 0.3212 ± 0.0056 mPa·s
viscosity (372.48 K, 30000 kPa, m1 = 0.218): 0.3248 ± 0.0057 mPa·s
viscosity (372.49 K, 10000 kPa, m1 = 1.368): 0.4771 ± 0.0086 mPa·s
